# Experimental data: patent US11319289B2, “5-hydroxy pyridine-based compound for use as P2X1 and P2X3 receptor antagonist and pharmaceutical composition comprising same” (GWANGJU INSTITUTE OF SCIENCE AND TECHNOLOGY, priority 2017, dated 2022)
# Tests used:
# Type in all cases: cell-based
# [1] = target: T1, human P2X3 receptor (hP2X3) (Homo sapiens, UniProt P56373); experiment: Two-electrode voltage clamp assay, recombinant hP2X3 receptor in Xenopus oocytes; details: for IC50: 2 μM ATP-evoked current, mean±SEM n≥3 (footnote d); for selectivity for hP2X3R to mP2X1R: hP2X3R versus mP2X1R
# T1 construct: expressed in transfected cells; host or cells: Xenopus oocytes (cRNA microinjection)
# T1 sequence (P56373 1-397): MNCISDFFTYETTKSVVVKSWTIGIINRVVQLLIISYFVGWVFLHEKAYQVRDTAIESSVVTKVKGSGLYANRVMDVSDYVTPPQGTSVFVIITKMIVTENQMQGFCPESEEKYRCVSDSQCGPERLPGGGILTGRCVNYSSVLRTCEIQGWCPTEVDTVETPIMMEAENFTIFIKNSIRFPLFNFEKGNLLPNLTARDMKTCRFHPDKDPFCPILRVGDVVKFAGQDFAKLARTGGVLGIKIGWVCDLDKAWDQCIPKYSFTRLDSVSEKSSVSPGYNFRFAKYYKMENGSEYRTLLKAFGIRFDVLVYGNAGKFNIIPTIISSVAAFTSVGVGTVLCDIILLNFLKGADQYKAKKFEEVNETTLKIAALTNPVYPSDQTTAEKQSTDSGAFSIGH
# Procedure: (§1) 1-1. Two-Electrode Voltage Clamp Assay for Recombinant mP2X1 and hP2X3 Receptors
# (§2) Xenopus oocytes were isolated and incubated with 270 U/mg of collagenase at 23 to 24° C. for 1.5 hours. Defolliculated oocytes were kept in Barth's solution at 18° C. After 1 day, the defolliculated oocytes were each microinjected cytosolically with mP2X1 and human P2X3 receptor cRNA ([…], 1 μg/mL), incubated for 24 hours at 18° C. in Barth's solution. The cRNA-injected oocytes were kept for 12 days at 4° C. ATP-activated membrane currents (Vh=−70 mV) were recorded from the cRNA-injected oocytes using the two-electrode voltage clamp technique (Axoclamp 2B amplifier). Voltage recording ([…] tip resistance) and current-recording microelectrodes (5 MΩ tip resistance) were filled with 3.0 M KCl. Oocytes were placed in an electrophysiological chamber continuously superfused with Ringer's solution (5 mL/min, at 18° C.) containing 110 mM NaCl, 2.5 mM KCl, 5 mM HEPES and 1.8 mM BaCl2, with pH adjusted to 7.5. To induce an evoked current, 2 μM ATP was superfused for 60 to 120 seconds and then washed for 20 min. For data analysis, the ATP-evoked current was normalized at pH 7.5. The compounds were introduced to the fixed oocytes 20 minutes prior to ATP exposure in the electrophysiological chamber. IC50 values (the concentration of the compound required to inhibit the ATP response by 50%) were determined by Hill plots designed using the Chemical Formula: log(I/Imax−1), where I is the current evoked by ATP in the presence of an antagonist. Data are presented as mean±SEM (n≥3) from different batches of oocytes.
# (§3) In order to investigate the structure-activity relationship (SAR) of the compounds synthesized in the present invention, the antagonistic activity was evaluated by a two-electrode voltage clamp (TEVC) assay in Xenopus oocytes expressing the recombinant mP2X1 or hP2X3, respectively. The hP2X7R antagonistic activity was assessed using an ethidium ion accumulation assay in human HEK293 cells stably expressing the recombinant human P2X7R.
# [2] = target: T2, human P2X7 receptor (hP2X7) (Homo sapiens, UniProt Q99572); experiment: Ethidium bromide accumulation assay in hP2X7-expressing HEK293 cells; details: for hP2X7 % inhibition of ethidium bromide accumulation: 10 μM compound with BzATP
# T2 construct: expressed in transfected cells
# T2 sequence (Q99572 1-595): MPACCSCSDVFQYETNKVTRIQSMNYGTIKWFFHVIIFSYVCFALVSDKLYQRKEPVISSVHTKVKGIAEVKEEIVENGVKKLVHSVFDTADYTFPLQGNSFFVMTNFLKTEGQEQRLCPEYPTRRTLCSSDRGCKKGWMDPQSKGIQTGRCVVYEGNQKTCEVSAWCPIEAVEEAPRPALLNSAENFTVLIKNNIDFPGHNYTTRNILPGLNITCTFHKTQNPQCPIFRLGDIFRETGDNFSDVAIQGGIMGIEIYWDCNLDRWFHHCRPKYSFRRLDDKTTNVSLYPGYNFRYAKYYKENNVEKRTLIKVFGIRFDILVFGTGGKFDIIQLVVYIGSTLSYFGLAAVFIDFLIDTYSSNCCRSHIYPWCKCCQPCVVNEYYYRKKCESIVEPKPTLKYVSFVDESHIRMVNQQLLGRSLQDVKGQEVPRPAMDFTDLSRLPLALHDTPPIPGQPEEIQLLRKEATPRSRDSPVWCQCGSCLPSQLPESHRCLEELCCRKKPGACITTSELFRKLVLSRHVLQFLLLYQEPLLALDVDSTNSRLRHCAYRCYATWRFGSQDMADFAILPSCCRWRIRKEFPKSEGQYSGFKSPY
# Procedure: 1-2. Ethidium Bromide Accumulation Assay in hP2X-Expressing HEK293 Cells
# HEK293 cells that are stably transfected with the human P2X7 receptor (P2X7R) were kept under a humidified atmosphere of 5% CO2 at 37° C. in DMEM supplemented with 10% (v/v) FBS, 2 mM L-glutamine and antibiotics (50 U/mL penicillin and 50 μg/ml streptomycin). BzATP-induced pore formation was measured using a fluorescence plate reader by measuring cellular absorption of ethidium in the hP2X7-expressing HEK293 cells. The hP2X7-expressing HEK293 cells were washed once with an appropriate assay buffer, and the buffer was also removed before subsequent analysis. All studies were performed at room temperature and the final assay volume was 100 μL. The cells were resuspended at 2.5×10^6 cells/mL in assay buffers consisting of 10 mM HEPES, 5 mM N-methyl-D-glucamine, 5.6 mM KCl, 10 mM D-glucose and 0.5 mM CaCl2 (pH 7.4) and supplemented with 280 mM sucrose or 140 mM NaCl.
# In order to determine the antagonistic activity of the 5-hydroxyl-pyridine derivatives of the present invention and the reference compound (AZD9056), these compounds were added to the cells at a concentration of 10 μM with BzATP without pre-incubation. The cells were incubated for 2 hours under a humidified atmosphere of 5% CO2 at 37° C., and the absorption of ethidium dye was observed by measuring fluorescence with a Bio-Tek instrument FL600 fluorescent plate reader (excitation wavelength of 530 nm and emission wavelength of 590 nm). The results are expressed as a percentage relative to the maximum cumulative amount of ethidium bromide when stimulated with BzATP alone.
# as §3
# [3] = target: T3, mouse P2X1 receptor (mP2X1) (Mus musculus, UniProt P51576); experiment: Two-electrode voltage clamp assay, recombinant mP2X1 receptor in Xenopus oocytes; details: 2 μM ATP; for mP2X1 % inhibitory effect at 10 μM / inhibition at 10 µM: 10 μM compound, mean±SEM n≥3 (footnote c); for inhibition at 10 µM: read-out: mP2X1 % inhibitory effect at 10 μM
# T3 construct: expressed in transfected cells; host or cells: Xenopus oocytes (cRNA microinjection)
# T3 sequence (P51576 1-399): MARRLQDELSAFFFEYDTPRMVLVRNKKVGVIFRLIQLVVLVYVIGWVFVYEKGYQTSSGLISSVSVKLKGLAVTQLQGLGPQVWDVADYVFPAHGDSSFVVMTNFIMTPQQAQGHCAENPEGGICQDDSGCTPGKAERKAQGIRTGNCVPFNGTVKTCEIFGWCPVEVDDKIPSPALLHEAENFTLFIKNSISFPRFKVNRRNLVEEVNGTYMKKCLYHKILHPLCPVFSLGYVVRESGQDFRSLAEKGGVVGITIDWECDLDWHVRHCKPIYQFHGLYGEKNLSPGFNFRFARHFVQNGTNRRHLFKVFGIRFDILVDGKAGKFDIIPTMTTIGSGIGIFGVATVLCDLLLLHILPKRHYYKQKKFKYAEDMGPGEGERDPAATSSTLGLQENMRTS
# Procedure: as §1, §2, §3
SMILES,IC50 ([1]; Xenopus oocytes),hP2X7 % inhibition of ethidium bromide accumulation [2],mP2X1 % inhibitory effect at 10 μM [3],other results
"COc1ccc(CCc2nc(Cc3ccccc3)c(O)c(C(=O)O)c2C(=O)O)cc1 [Compound 13h, 6-Benzyl-5-hydroxy-2-(4-methoxyphenethyl)pyridine-3,4-dicarboxylic acid]",751 ± 83 nM,Inactive,Inactive^c,–
"COc1ccc(CCc2nc(C(=O)O)c(O)c(C(=O)O)c2C(=O)O)cc1 [Compound 13j, 3-Hydroxy-6-(4-methoxyphenethyl)pyridine-2,4,5-tricarboxylic acid]",319 ± 81 nM,Inactive,–,inhibition at 10 µM [3]: 36.7 ± 2.8%
"COc1ccc(CCc2nc(CCc3ccccc3)c(O)c(C(=O)O)c2C(=O)O)cc1 [Compound 13i, 5-Hydroxy-2-(4-methoxyphenethyl)-6-phenethylpyridine-3,4-dicarboxylic acid]",742 ± 73 nM,inactive,Inactive^c,–
"COc1ccc(CCc2nc(C)c(O)c(C#N)c2C(=O)O)cc1 [Compound 16, 4-Cyano-5-hydroxy-2-(4-methoxyphenethyl)-6-methylnicotinic acid]",–,Inactive,Inactive^c,"inhibition at 1 µM ([1]; 1 μM compound, 2 μM ATP, Xenopus oocytes, mean±SEM n≥3 (footnote b), read-out: hP2X3 % inhibitory effect at 1 μM): 33.3%"
"O=C(Nc1cc(C(=O)Nc2ccc(S(=O)(=O)O)cc2S(=O)(=O)O)cc(C(=O)Nc2ccc(S(=O)(=O)O)cc2S(=O)(=O)O)c1)Nc1cc(C(=O)Nc2ccc(S(=O)(=O)O)cc2S(=O)(=O)O)cc(C(=O)Nc2ccc(S(=O)(=O)O)cc2S(=O)(=O)O)c1 [NF-449, reference compound]",–,–,–,"IC50 ([3]; read-out: mP2X1 (positive control, value in pM)): 307 ± 93 pM"
"CCCc1nc(CCc2ccc(OC)cc2)c(C)c(C(N)=O)c1O [Compound 23, 5-Hydroxy-2-[2-(4-methoxyphenyl)ethyl]-3-methyl-6-propyl-pyridine-4-carboxamide]",709 nM,inactive,Inactive^c,–
"COc1ccc(CCc2nc(CCSC)c(O)c(C(=O)O)c2C(=O)O)cc1 [Compound 13k, 5-Hydroxy-2-(4-methoxyphenethyl)-6-(2-(methylthio)ethyl)pyridine-3,4-dicarboxylic acid]",287 ± 87 nM,inactive,Inactive^c,–
"CCCCc1nc(CCc2ccc(OC)cc2)c(C(=O)O)c(C(=O)O)c1O [Compound 13e, 6-Butyl-5-hydroxy-2-(4-methoxyphenethyl)pyridine-3,4-dicarboxylic acid]",95 nM,inactive,–,selectivity for hP2X3R to mP2X1R [1]: about 100 fold; inhibition at 10 µM [3]: 41.9 ± 9.1%
"COc1ccc(CCc2nc(C)c(O)c(C(=O)O)c2C(=O)O)cc1 [Compound 13b, 5-Hydroxy-2-(4-methoxyphenethyl)-6-methylpyridine-3,4-dicarboxylic acid]",–,Inactive,–,selectivity for hP2X3R to mP2X1R [1]: non-selective
"O=C(NCC12CC3CC(CC(C3)C1)C2)c1cc(CCCNCCCO)ccc1Cl [AZD9056, reference compound]",–,–,–,"IC50 ([2]; ethidium accumulation, read-out: hP2X7 (reference compound, value in nM)): 0.23 ± 0.11 nM"
"CCCc1nc(Cc2cccc(Oc3ccccc3)c2)c(C)c(CCC(=O)O)c1O [Compound 37, 3-(3-Hydroxy-5-methyl-6-(3-phenoxybenzyl)-2-propylpyridin-4-yl)propanoic acid]",–,inactive,inactive^c,–

# Second part, led by results:
IC50 ([1]; Xenopus oocytes),hP2X7 % inhibition of ethidium bromide accumulation [2],mP2X1 % inhibitory effect at 10 μM [3],SMILES,other results
303 nM,Inactive,–,"CCCc1nc(CCc2ccc(OC)cc2)c(C)c(C(=O)O)c1O [Compound 22c, 3-Hydroxy-6-(4-methoxyphenethyl)-5-methyl-2-propylisonicotinic acid]",inhibition at 10 µM [3]: 22.7%
681 ± 98 nM,Inactive,Inactive^c,"COc1ccc(CCc2cc(C(=O)O)c(O)c(C)n2)cc1 [Compound 22a, 3-Hydroxy-6-(4-methoxyphenethyl)-2-methylisonicotinic acid]",–
